Tested on: MV-4-11 cells
Test: Gene expression microarray analysis (Affymetrix PrimeView) and GSEA
Assay type: cell-based, human
Design: RFU PODN (11730768_x_at) / Fold change /veh PODN (11730768_x_at) / RFU LINC00158 (11744669_a_at) / Fold change /veh LINC00158 (11744669_a_at) / RFU DUSP10 (11751237_a_at) / Fold change /veh DUSP10 (11751237_a_at) / RFU ID3 (11757404_x_at) / Fold change /veh ID3 (11757404_x_at) / RFU PLEKHG5 (11737974_s_at) / Fold change /veh PLEKHG5 (11737974_s_at) / RFU LRRC4B (11730491_at) / Fold change /veh LRRC4B (11730491_at) / RFU GIMAP4 (11747438_a_at) / Fold change /veh GIMAP4 (11747438_a_at) / RFU KRT8 (11758183_x_at) / Fold change /veh KRT8 (11758183_x_at) / RFU CNN1 (11734310_a_at) / Fold change /veh CNN1 (11734310_a_at) / RFU VPS37D (11726825_at) / Fold change /veh VPS37D (11726825_at) / RFU C10orf10 (11716522_x_at) / Fold change /veh C10orf10 (11716522_x_at) / RFU KIR2DL2 /// KIR2DL4 /// KIR2DL5A /// KIR2DL5B /// KIR2DS1 /// KIR2DS2 /// KIR2DS3 /// KIR2DS4 /// KIR3DL3 /// KIR3DL3 /// KIR3DS1 (11738374_at) / Fold change /veh KIR2DL2 /// KIR2DL4 /// KIR2DL5A /// KIR2DL5B /// KIR2DS1 /// KIR2DS2 /// KIR2DS3 /// KIR2DS4 /// KIR3DL3 /// KIR3DL3 /// KIR3DS1 (11738374_at) / RFU C1QL1 (11718748_at) / Fold change /veh C1QL1 (11718748_at) / RFU TMPRSS4 (11747572_a_at) / Fold change /veh TMPRSS4 (11747572_a_at) / RFU HAMP (11756126_x_at) / Fold change /veh HAMP (11756126_x_at) / RFU RNFT2 (11725882_a_at) / Fold change /veh RNFT2 (11725882_a_at) / RFU NR4A2 (11747474_a_at) / Fold change /veh NR4A2 (11747474_a_at) / RFU ABCC12 (11746883_a_at) / Fold change /veh ABCC12 (11746883_a_at) / RFU TMEM136 (11760407_x_at) / Fold change /veh TMEM136 (11760407_x_at) / RFU CLDN22 /// WWC2 (11732394_at) / Fold change /veh CLDN22 /// WWC2 (11732394_at) / RFU HLA-DPB1 (11760878_x_at) / Fold change /veh HLA-DPB1 (11760878_x_at) / RFU SPINT1 (11716480_a_at) / Fold change /veh SPINT1 (11716480_a_at) / RFU GAP43 (11754022_s_at) / Fold change /veh GAP43 (11754022_s_at) / RFU A4GNT (11735810_at) / Fold change /veh A4GNT (11735810_at) / RFU PRB3 (11715151_x_at) / Fold change /veh PRB3 (11715151_x_at) / RFU TUBB4B (11761932_at) / Fold change /veh TUBB4B (11761932_at) / RFU CAPN14 (11732068_a_at) / Fold change /veh CAPN14 (11732068_a_at) / RFU TMCC2 (11721928_a_at) / Fold change /veh TMCC2 (11721928_a_at) / RFU IRGQ (11745062_a_at) / Fold change /veh IRGQ (11745062_a_at) / RFU FAM174B (11720279_a_at) / Fold change /veh FAM174B (11720279_a_at) / RFU TMPRSS4 (11748680_a_at) / Fold change /veh TMPRSS4 (11748680_a_at) / RFU FAM212B (11763350_a_at) / Fold change /veh FAM212B (11763350_a_at) / RFU PLEKHG5 (11743358_a_at) / Fold change /veh PLEKHG5 (11743358_a_at) / RFU ZSCAN30 (11745921_a_at) / Fold change /veh ZSCAN30 (11745921_a_at) / RFU CMKLR1 (11741424_a_at) / Fold change /veh CMKLR1 (11741424_a_at) / RFU LOC101060620 /// MAPK8IP1 (11723275_at) / Fold change /veh LOC101060620 /// MAPK8IP1 (11723275_at) / RFU SPTSSB (11747773_x_at) / Fold change /veh SPTSSB (11747773_x_at) / RFU PRSS12 (11739890_at) / Fold change /veh PRSS12 (11739890_at) / RFU BIN1 (11741810_x_at) / Fold change /veh BIN1 (11741810_x_at) / RFU WNT11 (11732464_a_at) / Fold change /veh WNT11 (11732464_a_at) / RFU C10orf10 (11716521_a_at) / Fold change /veh C10orf10 (11716521_a_at) / RFU C5orf56 (11738089_at) / Fold change /veh C5orf56 (11738089_at) / RFU CYB561 (11721691_x_at) / Fold change /veh CYB561 (11721691_x_at) / RFU ANKRD19P (11752326_a_at) / Fold change /veh ANKRD19P (11752326_a_at) / RFU OR2T12 /// OR2T33 /// OR2T8 (11738714_s_at) / Fold change /veh OR2T12 /// OR2T33 /// OR2T8 (11738714_s_at) / RFU VCAN (11748164_a_at) / Fold change /veh VCAN (11748164_a_at) / RFU JSRP1 (11732532_at) / Fold change /veh JSRP1 (11732532_at) / RFU KRTAP10-11 (11738290_x_at) / Fold change /veh KRTAP10-11 (11738290_x_at) / RFU MYO3A (11730013_a_at) / Fold change /veh MYO3A (11730013_a_at) / RFU EBF3 (11725865_a_at) / Fold change /veh EBF3 (11725865_a_at) / RFU CAMK2N1 (11719241_x_at) / Fold change /veh CAMK2N1 (11719241_x_at) / RFU C5orf56 (11738088_a_at) / Fold change /veh C5orf56 (11738088_a_at) / RFU OLFML3 (11715873_a_at) / Fold change /veh OLFML3 (11715873_a_at) / RFU LOC100653217 /// NTM (11731650_a_at) / Fold change /veh LOC100653217 /// NTM (11731650_a_at) / RFU MAPK11 (11762145_a_at) / Fold change /veh MAPK11 (11762145_a_at) / RFU FIZ1 (11724087_x_at) / Fold change /veh FIZ1 (11724087_x_at) / RFU OASL (11726364_x_at) / Fold change /veh OASL (11726364_x_at) / RFU SOX15 (11748057_x_at) / Fold change /veh SOX15 (11748057_x_at) / RFU CD79A (11719716_a_at) / Fold change /veh CD79A (11719716_a_at) / RFU HIST1H1D (11736915_at) / Fold change /veh HIST1H1D (11736915_at) / RFU CASKIN2 (11723855_a_at) / Fold change /veh CASKIN2 (11723855_a_at) / RFU LOC730098 (11760151_x_at) / Fold change /veh LOC730098 (11760151_x_at) / RFU OR4N2 (11742367_at) / Fold change /veh OR4N2 (11742367_at) / RFU PRRT2 (11749266_a_at) / Fold change /veh PRRT2 (11749266_a_at) / RFU SNX32 (11753110_a_at) / Fold change /veh SNX32 (11753110_a_at) / RFU CDHR5 (11726645_a_at) / Fold change /veh CDHR5 (11726645_a_at) / RFU RCAN1 (11760418_a_at) / Fold change /veh RCAN1 (11760418_a_at) / RFU FAM167A (11723789_a_at) / Fold change /veh FAM167A (11723789_a_at) / RFU FAM26E (11764081_at) / Fold change /veh FAM26E (11764081_at) / RFU ISYNA1 (11749810_s_at) / Fold change /veh ISYNA1 (11749810_s_at) / RFU ACY1 (11761880_at) / Fold change /veh ACY1 (11761880_at) / RFU 11764098_at / Fold change /veh 11764098_at / RFU SAMD14 (11745864_x_at) / Fold change /veh SAMD14 (11745864_x_at) / RFU NPB (11741838_a_at) / Fold change /veh NPB (11741838_a_at) / RFU TMPRSS6 (11731388_a_at) / Fold change /veh TMPRSS6 (11731388_a_at) / RFU KRTAP10-2 (11738614_at) / Fold change /veh KRTAP10-2 (11738614_at) / RFU ARHGAP8 /// PRR5-ARHGAP8 (11727945_x_at) / Fold change /veh ARHGAP8 /// PRR5-ARHGAP8 (11727945_x_at) / RFU KRTAP5-7 /// NADSYN1 (11734609_at) / Fold change /veh KRTAP5-7 /// NADSYN1 (11734609_at) / RFU RASL12 (11751679_a_at) / Fold change /veh RASL12 (11751679_a_at) / RFU CDKN2B (11736163_a_at) / Fold change /veh CDKN2B (11736163_a_at) / RFU PRF1 (11729649_at) / Fold change /veh PRF1 (11729649_at) / RFU, ZNF638 /// ZNF638-IT1 / Fold change vs veh, ZNF638 /// ZNF638-IT1 / RFU, PANK3 / Fold change vs veh, PANK3 / RFU, SH3YL1 / Fold change vs veh, SH3YL1 / RFU, ZEB2 / Fold change vs veh, ZEB2 / RFU, NRIP1 / Fold change vs veh, NRIP1 / RFU, PTTG1IP / Fold change vs veh, PTTG1IP / RFU, CAPN2 / Fold change vs veh, CAPN2 / RFU, MED14 / Fold change vs veh, MED14 / RFU, SNORA58 / Fold change vs veh, SNORA58 / RFU, C1orf63 / Fold change vs veh, C1orf63 / RFU, LRRFIP1 / Fold change vs veh, LRRFIP1 / RFU, NDUFAF7 / Fold change vs veh, NDUFAF7 / RFU, SLC12A2 / Fold change vs veh, SLC12A2 / RFU, IBTK / Fold change vs veh, IBTK / RFU, ESF1 / Fold change vs veh, ESF1 / Fold change vs veh, TMEM50B / RFU, TAOK1 / Fold change vs veh, TAOK1 / RFU, ACBD3 / Fold change vs veh, ACBD3 / RFU, TMA16 / Fold change vs veh, TMA16 / RFU, RWDD3 / Fold change vs veh, RWDD3 / RFU, BCAT1 / Fold change vs veh, BCAT1 / RFU, EDEM3 / Fold change vs veh, EDEM3 / RFU, TMEM33 / Fold change vs veh, TMEM33 / RFU, WDR75 / Fold change vs veh, WDR75 / RFU, AHCTF1 / Fold change vs veh, AHCTF1 / RFU, TFRC / Fold change vs veh, TFRC / RFU, ZDHHC17 / Fold change vs veh, ZDHHC17 / RFU, NOM1 / Fold change vs veh, NOM1 / RFU, ARL8B / Fold change vs veh, ARL8B / RFU, ZBTB11 / Fold change vs veh, ZBTB11 / RFU, TAMM41 / Fold change vs veh, TAMM41 / RFU, KIAA1704 /// LOC100996395 / Fold change vs veh, KIAA1704 /// LOC100996395 / RFU, ING1 / Fold change vs veh, ING1 / RFU, TRMT61B / Fold change vs veh, TRMT61B / RFU, FUBP3 / Fold change vs veh, FUBP3 / RFU, TP53 / Fold change vs veh, TP53 / RFU, TNKS2 / Fold change vs veh, TNKS2 / RFU, ZFP14 / Fold change vs veh, ZFP14 / RFU, ACTR2 / Fold change vs veh, ACTR2 / RFU, PPP3R1 / Fold change vs veh, PPP3R1 / RFU, PIK3R1 / Fold change vs veh, PIK3R1 / RFU, HNRNPA1 / Fold change vs veh, HNRNPA1 / RFU, RNF170 / Fold change vs veh, RNF170 / RFU, ZNF28 / Fold change vs veh, ZNF28 / RFU, RNGTT / Fold change vs veh, RNGTT / RFU, OGT / Fold change vs veh, OGT / RFU, BRD1 / Fold change vs veh, BRD1 / RFU, MARS / Fold change vs veh, MARS / RFU, ZNF655 / Fold change vs veh, ZNF655 / RFU, FAHD1 / Fold change vs veh, FAHD1 / RFU, BDP1 / Fold change vs veh, BDP1 / RFU, LRRCC1 / Fold change vs veh, LRRCC1 / RFU, ARID1A / Fold change vs veh, ARID1A / RFU, ZNF146 / Fold change vs veh, ZNF146 / RFU, ZNF330 / Fold change vs veh, ZNF330 / RFU, GPN3 / Fold change vs veh, GPN3 / RFU, C9orf123 / Fold change vs veh, C9orf123 / RFU, N4BP2L2 / Fold change vs veh, N4BP2L2 / RFU, ARFIP1 / Fold change vs veh, ARFIP1 / RFU, FAM179B / Fold change vs veh, FAM179B / RFU, BCL10 / Fold change vs veh, BCL10 / RFU, UHRF1BP1L / Fold change vs veh, UHRF1BP1L / RFU, BET1 / Fold change vs veh, BET1 / RFU, CNOT2 / Fold change vs veh, CNOT2 / RFU, ZNF268 / Fold change vs veh, ZNF268 / Fold change vs veh, ZNF507 / RFU, DGCR2 / Fold change vs veh, DGCR2 / RFU, WDSUB1 / Fold change vs veh, WDSUB1 / Fold change vs veh, HSP90B1 /// MIR3652 / RFU, ADSS / Fold change vs veh, ADSS / RFU, GK / Fold change vs veh, GK / RFU, ZNF148 / Fold change vs veh, ZNF148 / RFU, TAF9 / Fold change vs veh, TAF9 / RFU, SLC1A5 / Fold change vs veh, SLC1A5 / RFU, SLMO2 / Fold change vs veh, SLMO2 / RFU, ABCC4 / Fold change vs veh, ABCC4 / RFU, LOC101060439 /// RAP1B / Fold change vs veh, LOC101060439 /// RAP1B / RFU, RFX7 / Fold change vs veh, RFX7 / RFU, GTPBP10 / Fold change vs veh, GTPBP10 / RFU, CNEP1R1 / Fold change vs veh, CNEP1R1 / RFU, BIVM-ERCC5 /// ERCC5 / Fold change vs veh, BIVM-ERCC5 /// ERCC5 / RFU, ILF3 / Fold change vs veh, ILF3 / RFU 11762660_at / Fold change /veh 11762660_at / RFU VCAN (11757783_s_at) / Fold change /veh VCAN (11757783_s_at) / RFU DDX43 (11728927_at) / Fold change /veh DDX43 (11728927_at) / RFU KRT8 (11758188_x_at) / Fold change /veh KRT8 (11758188_x_at) / RFU NKD1 (11759106_at) / Fold change /veh NKD1 (11759106_at) / RFU SRD5A1 (11742802_a_at) / Fold change /veh SRD5A1 (11742802_a_at) / RFU TPSAB1 /// TPSB2 (11721975_s_at) / Fold change /veh TPSAB1 /// TPSB2 (11721975_s_at) / RFU GSTM3 (11746129_a_at) / Fold change /veh GSTM3 (11746129_a_at) / RFU IL23R (11737362_x_at) / Fold change /veh IL23R (11737362_x_at) / RFU TMEM51 (11727254_a_at) / Fold change /veh TMEM51 (11727254_a_at) / RFU PIWIL2 (11732686_x_at) / Fold change /veh PIWIL2 (11732686_x_at) / RFU ORM1 (11744905_x_at) / Fold change /veh ORM1 (11744905_x_at) / RFU CCDC152 (11743942_at) / Fold change /veh CCDC152 (11743942_at) / RFU ECM1 (11717891_a_at) / Fold change /veh ECM1 (11717891_a_at) / RFU IL23R (11748794_a_at) / Fold change /veh IL23R (11748794_a_at) / RFU TNFAIP8L3 (11732012_x_at) / Fold change /veh TNFAIP8L3 (11732012_x_at) / RFU MBOAT4 (11741988_at) / Fold change /veh MBOAT4 (11741988_at) / RFU 11764193_at / Fold change /veh 11764193_at / RFU TMEM53 (11763286_at) / Fold change /veh TMEM53 (11763286_at) / RFU MAGEB2 (11727129_at) / Fold change /veh MAGEB2 (11727129_at) / RFU TMEM200A (11744735_a_at) / Fold change /veh TMEM200A (11744735_a_at) / RFU CCDC152 (11751479_a_at) / Fold change /veh CCDC152 (11751479_a_at) / RFU FAM211A (11726209_a_at) / Fold change /veh FAM211A (11726209_a_at) / RFU RGS16 (11746705_a_at) / Fold change /veh RGS16 (11746705_a_at) / RFU VCAN (11755009_s_at) / Fold change /veh VCAN (11755009_s_at) / RFU RHOB (11743442_s_at) / Fold change /veh RHOB (11743442_s_at) / RFU RGS16 (11720943_a_at) / Fold change /veh RGS16 (11720943_a_at) / RFU RGS16 (11720944_at) / Fold change /veh RGS16 (11720944_at) / RFU, VPS4B / Fold change vs veh, VPS4B / RFU, CREB1 / Fold change vs veh, CREB1 / RFU, DNAJC13 / Fold change vs veh, DNAJC13 / RFU, GNAQ / Fold change vs veh, GNAQ / RFU, CDK5R1 / Fold change vs veh, CDK5R1 / RFU, ZRANB3 / Fold change vs veh, ZRANB3 / RFU, CUL4A / Fold change vs veh, CUL4A / RFU, CCNY / Fold change vs veh, CCNY / RFU, UFL1 / Fold change vs veh, UFL1 / RFU, COG3 / Fold change vs veh, COG3 / RFU, DIAPH2 / Fold change vs veh, DIAPH2 / RFU, SKA2 / Fold change vs veh, SKA2 / RFU, AFF3 / Fold change vs veh, AFF3 / RFU, LMF1 / Fold change vs veh, LMF1 / RFU, IPO11 / Fold change vs veh, IPO11 / RFU, DFFB / Fold change vs veh, DFFB / RFU, FOXP1 / Fold change vs veh, FOXP1 / RFU, CARD8 / Fold change vs veh, CARD8 / RFU, STRN3 / Fold change vs veh, STRN3 / RFU, ADK / Fold change vs veh, ADK / RFU, RASSF2 / Fold change vs veh, RASSF2 / RFU, WIPF1 / Fold change vs veh, WIPF1 / RFU, LARP1B / Fold change vs veh, LARP1B / RFU, RASA1 / Fold change vs veh, RASA1 / RFU, RB1 / Fold change vs veh, RB1 / RFU, PPFIA1 / Fold change vs veh, PPFIA1 / RFU, MAT2A / Fold change vs veh, MAT2A / RFU, CCT5 / Fold change vs veh, CCT5 / RFU, WDR92 / Fold change vs veh, WDR92 / RFU, CUX1 / Fold change vs veh, CUX1 / RFU, TTC7A / Fold change vs veh, TTC7A / RFU, TMEM135 / Fold change vs veh, TMEM135 / RFU, DEPTOR / Fold change vs veh, DEPTOR / RFU, CPM / Fold change vs veh, CPM / RFU, DNAJB6 / Fold change vs veh, DNAJB6 / RFU, CACNA2D3 / Fold change vs veh, CACNA2D3 / RFU, DTX4 / Fold change vs veh, DTX4 / RFU, TFCP2 / Fold change vs veh, TFCP2 / RFU, GMCL1 /// GMCL1P1 / Fold change vs veh, GMCL1 /// GMCL1P1 / RFU, AEBP2 / Fold change vs veh, AEBP2 / RFU, SNHG1 /// SNORD22 /// SNORD25 /// SNORD26 /// SNORD27 /// SNORD28 /// SNORD29 /// SNORD31 / Fold change vs veh, SNHG1 /// SNORD22 /// SNORD25 /// SNORD26 /// SNORD27 /// SNORD28 /// SNORD29 /// SNORD31 / Fold change (Aza/veh), C12orf56 (ProbeSet 11735607_a_at) / Fold change (ACY-1035/veh), C12orf56 (ProbeSet 11735607_a_at) / Fold change (Aza/veh), FGFR1OP (ProbeSet 11751329_s_at) / Fold change (ACY-1035/veh), FGFR1OP (ProbeSet 11751329_s_at) / Fold change (Aza/veh), VPS36 (ProbeSet 11739960_a_at) / Fold change (ACY-1035/veh), VPS36 (ProbeSet 11739960_a_at) / RFU SYPL1 (11715823_x_at) / Fold change /veh SYPL1 (11715823_x_at) / RFU IGFBP7 (11715501_s_at) / Fold change /veh IGFBP7 (11715501_s_at) / RFU REEP3 (11722064_at) / Fold change /veh REEP3 (11722064_at) / RFU IGLL1 (11728026_x_at) / Fold change /veh IGLL1 (11728026_x_at): dose or concentration left out as unconfirmed
Details: MV-4-11 cells, 48 hours

Nc1ccc(-c2cccs2)cc1NC(=O)c1ccc2c(c1)cc(C1CC1)n2CCN1CCOCC1 [ACY-1035]
Fold change /veh HIST1H1D (11736915_at): 0.94
